Laboratory results published in publication doi:10.1101/2023.12.04.569845, “Identification of 4-(6-((2-methoxyphenyl)amino)pyrazin-2-yl)benzoic acids as CSNK2A inhibitors with antiviral activity and improved selectivity over PIM3” (bioRxiv, 2023).
Where two headings read alike, the source gives them in different places.

Legend:
Assay in all cases: biochemical
Parameters in all cases: Thermal shift (DSF, SYPRO Orange) Tm shift of recombinant kinase domains at 10 uM compound
[1] = target: T1, GAK (Homo sapiens, UniProt O14976)
T1 sequence (O14976 1-1311): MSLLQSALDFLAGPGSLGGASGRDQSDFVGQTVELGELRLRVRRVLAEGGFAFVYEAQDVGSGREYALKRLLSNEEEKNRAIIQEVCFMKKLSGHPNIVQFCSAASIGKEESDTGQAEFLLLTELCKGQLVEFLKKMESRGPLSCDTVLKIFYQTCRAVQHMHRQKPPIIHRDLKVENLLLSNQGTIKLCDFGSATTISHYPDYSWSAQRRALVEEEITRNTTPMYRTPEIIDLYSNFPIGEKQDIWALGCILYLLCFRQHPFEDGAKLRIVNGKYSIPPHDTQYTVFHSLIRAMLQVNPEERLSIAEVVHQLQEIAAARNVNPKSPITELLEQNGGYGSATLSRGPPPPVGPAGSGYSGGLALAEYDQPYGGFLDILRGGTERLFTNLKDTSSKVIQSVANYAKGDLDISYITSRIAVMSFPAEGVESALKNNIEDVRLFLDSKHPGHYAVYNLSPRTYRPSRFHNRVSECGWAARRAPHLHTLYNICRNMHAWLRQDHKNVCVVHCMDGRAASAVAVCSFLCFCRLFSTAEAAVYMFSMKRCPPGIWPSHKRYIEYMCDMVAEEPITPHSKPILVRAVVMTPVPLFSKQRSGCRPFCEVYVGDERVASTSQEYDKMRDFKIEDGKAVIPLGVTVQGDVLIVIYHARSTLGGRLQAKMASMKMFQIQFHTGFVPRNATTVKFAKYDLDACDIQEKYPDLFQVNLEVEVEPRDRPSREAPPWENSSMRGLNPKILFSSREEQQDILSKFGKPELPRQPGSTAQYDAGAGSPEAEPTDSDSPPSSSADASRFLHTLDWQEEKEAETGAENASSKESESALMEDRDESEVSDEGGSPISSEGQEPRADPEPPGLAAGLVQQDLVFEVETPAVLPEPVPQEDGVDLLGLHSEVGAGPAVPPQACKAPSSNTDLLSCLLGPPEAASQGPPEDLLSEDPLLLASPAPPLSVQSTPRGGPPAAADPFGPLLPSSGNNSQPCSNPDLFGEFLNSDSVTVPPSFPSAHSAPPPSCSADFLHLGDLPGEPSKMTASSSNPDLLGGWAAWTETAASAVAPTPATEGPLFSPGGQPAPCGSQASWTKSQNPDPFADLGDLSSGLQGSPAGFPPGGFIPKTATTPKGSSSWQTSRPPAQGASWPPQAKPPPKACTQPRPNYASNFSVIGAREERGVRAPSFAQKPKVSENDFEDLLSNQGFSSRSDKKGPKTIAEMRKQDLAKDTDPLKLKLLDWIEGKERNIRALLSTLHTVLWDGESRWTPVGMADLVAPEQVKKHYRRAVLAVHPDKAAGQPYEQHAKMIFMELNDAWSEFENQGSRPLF
Method: (§1) S23 Thermal stability kinase selectivity. The assay was performed as previously described. 9,10 Briefly, recombinant protein kinase domains at a concentration of 2 μM were mixed with 10 μM compound in a buffer containing 20 mM HEPES, pH 7.5, and 500 mM NaCl. SYPRO Orange (5000×, Invitrogen) was added as a fluorescence probe (1 µl per mL). Subsequently, temperature-dependent protein unfolding profiles were measured using the QuantStudio™ 5 realtime PCR machine (Thermo Fisher). […] The temperature was raised with a step rate of 3°C per minute. Data points were analysed with the internal software (Thermal Shift SoftwareTM Version 1.4, Thermo Fisher) using the Boltzmann equation to determine the inflection point of the transition curve.

[2] = target: T2, EPHB1 (Homo sapiens, UniProt P54762)
T2 sequence (P54762 1-984): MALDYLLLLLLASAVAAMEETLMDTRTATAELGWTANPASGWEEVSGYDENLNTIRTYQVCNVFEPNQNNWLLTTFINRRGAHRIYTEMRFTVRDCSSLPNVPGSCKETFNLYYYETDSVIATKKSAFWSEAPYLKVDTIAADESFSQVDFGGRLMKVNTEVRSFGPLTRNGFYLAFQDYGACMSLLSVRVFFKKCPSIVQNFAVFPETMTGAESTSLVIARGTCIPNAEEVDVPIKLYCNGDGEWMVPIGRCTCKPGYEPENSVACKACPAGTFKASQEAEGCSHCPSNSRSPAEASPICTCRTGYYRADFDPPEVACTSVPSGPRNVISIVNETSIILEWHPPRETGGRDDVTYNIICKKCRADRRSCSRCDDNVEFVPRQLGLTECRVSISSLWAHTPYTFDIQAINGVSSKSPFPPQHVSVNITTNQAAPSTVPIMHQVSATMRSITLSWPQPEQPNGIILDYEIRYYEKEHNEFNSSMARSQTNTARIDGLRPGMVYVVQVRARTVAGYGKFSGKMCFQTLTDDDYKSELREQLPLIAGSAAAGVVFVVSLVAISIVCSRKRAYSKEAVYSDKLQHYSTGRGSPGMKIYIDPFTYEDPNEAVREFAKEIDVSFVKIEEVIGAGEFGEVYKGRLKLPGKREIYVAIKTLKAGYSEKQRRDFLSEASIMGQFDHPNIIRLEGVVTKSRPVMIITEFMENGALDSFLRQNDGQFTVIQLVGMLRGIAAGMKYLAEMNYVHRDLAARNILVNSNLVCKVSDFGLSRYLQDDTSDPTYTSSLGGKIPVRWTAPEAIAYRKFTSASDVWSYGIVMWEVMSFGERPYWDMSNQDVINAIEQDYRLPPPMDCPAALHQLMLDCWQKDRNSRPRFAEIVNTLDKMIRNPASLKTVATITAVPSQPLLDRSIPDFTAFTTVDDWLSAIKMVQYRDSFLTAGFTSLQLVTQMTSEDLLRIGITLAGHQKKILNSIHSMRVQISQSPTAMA
Method: as §1

[3] = target: T3, BIKE (Homo sapiens, UniProt Q9NSY1)
T3 construct: gene BMP2K
T3 sequence (Q9NSY1 whole entry): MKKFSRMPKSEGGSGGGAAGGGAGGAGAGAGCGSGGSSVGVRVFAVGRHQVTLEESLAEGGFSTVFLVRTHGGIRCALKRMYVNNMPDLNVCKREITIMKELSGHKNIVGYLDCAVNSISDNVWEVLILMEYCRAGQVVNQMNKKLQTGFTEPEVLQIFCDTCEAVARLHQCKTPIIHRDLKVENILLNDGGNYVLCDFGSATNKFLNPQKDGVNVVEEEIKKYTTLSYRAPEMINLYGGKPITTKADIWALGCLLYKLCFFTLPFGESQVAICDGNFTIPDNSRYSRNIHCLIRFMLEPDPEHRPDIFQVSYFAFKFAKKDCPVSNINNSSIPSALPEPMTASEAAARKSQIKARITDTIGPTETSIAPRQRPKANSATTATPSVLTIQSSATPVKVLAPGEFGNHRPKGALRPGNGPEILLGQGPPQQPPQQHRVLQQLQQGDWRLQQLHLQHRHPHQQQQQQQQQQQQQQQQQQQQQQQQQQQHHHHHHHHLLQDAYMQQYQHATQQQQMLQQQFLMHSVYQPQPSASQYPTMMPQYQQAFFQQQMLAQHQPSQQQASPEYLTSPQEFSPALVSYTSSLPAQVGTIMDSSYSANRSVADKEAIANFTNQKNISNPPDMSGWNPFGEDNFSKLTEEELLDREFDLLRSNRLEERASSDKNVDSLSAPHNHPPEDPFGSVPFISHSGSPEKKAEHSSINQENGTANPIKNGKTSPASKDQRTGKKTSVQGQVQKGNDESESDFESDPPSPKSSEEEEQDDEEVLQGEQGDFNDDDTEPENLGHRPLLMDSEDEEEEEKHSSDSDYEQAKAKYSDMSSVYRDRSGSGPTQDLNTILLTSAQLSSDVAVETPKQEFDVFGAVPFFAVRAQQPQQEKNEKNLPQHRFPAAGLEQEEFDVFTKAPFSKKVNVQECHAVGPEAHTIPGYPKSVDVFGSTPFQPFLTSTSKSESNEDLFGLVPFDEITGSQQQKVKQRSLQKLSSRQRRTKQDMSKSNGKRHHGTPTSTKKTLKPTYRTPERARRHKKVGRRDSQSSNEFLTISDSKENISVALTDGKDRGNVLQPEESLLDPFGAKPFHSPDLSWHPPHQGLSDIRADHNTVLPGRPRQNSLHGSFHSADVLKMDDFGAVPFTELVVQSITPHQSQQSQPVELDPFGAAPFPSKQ
Method: as §1

SMILES: CC(C)Nc1ccc2cnn(-c3cncc(-c4ccc(C(=O)O)cc4)n3)c2c1 [compound 2, 2]
- ΔTm at 10 µM ([1]; read-out: 2): 11 °C
- ΔTm at 10 µM ([2]; read-out: 2): 2 °C
- ΔTm at 10 µM ([3]; read-out: 2): 13 °C

SMILES: COc1ccc(OC(C)C)cc1Nc1cncc(-c2ccc(C(=O)O)cc2)n1 [7c]
- ΔTm at 10 µM ([1]; read-out: 7c): 7 °C
- ΔTm at 10 µM ([2]; read-out: 7c): 1 °C
- ΔTm at 10 µM ([3]; read-out: 7c): 10 °C

SMILES: CC(C)Oc1ccc2ccn(-c3cncc(-c4ccc(C(=O)O)cc4)n3)c2c1 [6c]
- ΔTm at 10 µM ([1]; read-out: 6c): 9 °C
- ΔTm at 10 µM ([2]; read-out: 6c): 2 °C
- ΔTm at 10 µM ([3]; read-out: 6c): 11 °C
